Active and inactive are the calls of the source. The rule behind the calls is not given here.
How the values were obtained:
[1] = target: T1, Alpha-1D adrenergic receptor (Rattus norvegicus, UniProt P23944); test: Antagonist activity at alpha1D adrenoreceptor in Rattus norvegicus (rat) aorta assessed as inhibition of phenylephrine-indued contraction; conditions: read-out: pA2 (converted)
T1 sequence (P23944 whole entry): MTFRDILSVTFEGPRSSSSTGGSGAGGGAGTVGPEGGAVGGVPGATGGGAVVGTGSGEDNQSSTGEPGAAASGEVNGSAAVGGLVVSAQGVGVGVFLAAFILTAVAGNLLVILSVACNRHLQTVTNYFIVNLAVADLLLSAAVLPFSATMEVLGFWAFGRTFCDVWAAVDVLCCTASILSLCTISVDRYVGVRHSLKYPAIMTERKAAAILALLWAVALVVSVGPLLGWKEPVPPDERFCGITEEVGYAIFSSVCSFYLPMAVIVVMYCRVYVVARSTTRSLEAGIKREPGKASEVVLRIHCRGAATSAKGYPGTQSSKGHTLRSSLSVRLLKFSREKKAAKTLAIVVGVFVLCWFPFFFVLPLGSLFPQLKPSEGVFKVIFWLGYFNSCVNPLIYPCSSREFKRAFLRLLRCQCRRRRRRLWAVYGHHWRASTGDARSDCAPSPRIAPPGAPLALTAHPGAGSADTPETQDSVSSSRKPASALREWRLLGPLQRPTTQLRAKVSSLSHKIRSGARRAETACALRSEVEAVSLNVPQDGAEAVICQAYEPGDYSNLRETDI

[2] = target: T2, Alpha-1B adrenergic receptor (Rattus norvegicus, UniProt P15823); test: Antagonist activity at alpha1B adrenoreceptor in Rattus norvegicus (rat) spleen assessed as inhibition of phenylephrine-indued contraction; conditions: read-out: pA2 (converted)
T2 sequence (P15823 whole entry): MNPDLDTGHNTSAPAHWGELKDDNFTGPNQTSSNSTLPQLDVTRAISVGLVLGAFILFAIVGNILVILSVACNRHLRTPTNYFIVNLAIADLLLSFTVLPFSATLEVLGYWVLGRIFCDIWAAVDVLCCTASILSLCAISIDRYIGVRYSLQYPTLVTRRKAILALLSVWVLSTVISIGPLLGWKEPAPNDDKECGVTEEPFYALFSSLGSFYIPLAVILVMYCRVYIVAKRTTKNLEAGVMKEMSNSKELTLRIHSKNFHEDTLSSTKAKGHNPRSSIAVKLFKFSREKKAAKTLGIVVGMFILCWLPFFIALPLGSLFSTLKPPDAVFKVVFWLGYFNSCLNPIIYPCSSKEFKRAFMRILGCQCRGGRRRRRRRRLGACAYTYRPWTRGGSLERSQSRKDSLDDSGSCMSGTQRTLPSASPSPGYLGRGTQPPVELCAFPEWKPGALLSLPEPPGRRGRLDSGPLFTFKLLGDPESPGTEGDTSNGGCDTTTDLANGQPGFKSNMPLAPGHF

[3] = target: T1, Alpha-1D adrenergic receptor; test: Binding affinity to Rattus norvegicus (rat) alpha1D adrenoreceptor by radioligand displacement assay
[4] = target: T3, Alpha-1A adrenergic receptor (Rattus norvegicus, UniProt P43140); test: Binding affinity to alpha1A adrenoreceptor in Rattus norvegicus (rat) submaxillary gland by radioligand displacement assay
T3 sequence (P43140 whole entry): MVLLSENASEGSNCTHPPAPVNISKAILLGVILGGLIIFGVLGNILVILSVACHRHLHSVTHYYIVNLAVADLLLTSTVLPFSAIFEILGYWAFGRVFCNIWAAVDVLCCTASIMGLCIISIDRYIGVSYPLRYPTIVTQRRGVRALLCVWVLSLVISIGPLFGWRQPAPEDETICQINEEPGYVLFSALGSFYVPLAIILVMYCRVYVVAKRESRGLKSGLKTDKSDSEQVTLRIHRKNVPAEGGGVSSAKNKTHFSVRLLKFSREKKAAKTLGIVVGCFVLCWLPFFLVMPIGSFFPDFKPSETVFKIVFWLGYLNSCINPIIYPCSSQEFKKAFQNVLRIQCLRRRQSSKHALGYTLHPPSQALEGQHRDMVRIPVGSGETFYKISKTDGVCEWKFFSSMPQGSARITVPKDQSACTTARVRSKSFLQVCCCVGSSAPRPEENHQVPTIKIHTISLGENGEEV

[5] = target: T4, Alpha-1B adrenergic receptor (Mesocricetus auratus, UniProt P18841); test: Binding affinity to Cricetinae (hamster) alpha1B adrenoreceptor by radioligand displacement assay
T4 sequence (P18841 whole entry): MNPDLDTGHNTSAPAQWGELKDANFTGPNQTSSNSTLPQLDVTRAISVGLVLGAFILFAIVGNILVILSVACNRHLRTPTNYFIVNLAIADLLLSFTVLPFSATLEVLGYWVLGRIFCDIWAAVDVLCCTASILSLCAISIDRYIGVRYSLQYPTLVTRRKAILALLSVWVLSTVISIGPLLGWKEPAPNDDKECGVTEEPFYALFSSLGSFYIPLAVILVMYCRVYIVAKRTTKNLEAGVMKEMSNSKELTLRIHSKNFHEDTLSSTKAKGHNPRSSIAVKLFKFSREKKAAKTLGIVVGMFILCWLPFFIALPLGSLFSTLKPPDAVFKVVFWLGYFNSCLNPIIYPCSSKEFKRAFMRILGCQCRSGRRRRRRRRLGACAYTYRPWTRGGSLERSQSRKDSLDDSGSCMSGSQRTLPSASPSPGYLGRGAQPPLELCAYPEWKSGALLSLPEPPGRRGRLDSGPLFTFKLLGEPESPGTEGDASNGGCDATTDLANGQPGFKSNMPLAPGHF

[6] = target: T5, Alpha-1B adrenergic receptor (Rattus norvegicus) (UniProt P15823); test: (§1) Agonist activity at alpha1B adrenoreceptor in Rattus norvegicus (rat) spleen
T5 sequence (whole entry): T2 sequence (P15823 whole entry)

[7] = target: T6, Alpha-1D adrenergic receptor (Rattus norvegicus) (UniProt P23944); test: Agonist activity at alpha1D adrenoreceptor in Rattus norvegicus (rat) aorta relative to phenylephrine
T6 sequence (whole entry): T1 sequence (P23944 whole entry)

[8] = target: T7, Alpha-1A adrenergic receptor (Oryctolagus cuniculus) (UniProt O02824); test: Agonist activity at alpha1A adrenoreceptor in Oryctolagus cuniculus (rabbit) urethra relative to phenylephrine
T7 sequence (whole entry): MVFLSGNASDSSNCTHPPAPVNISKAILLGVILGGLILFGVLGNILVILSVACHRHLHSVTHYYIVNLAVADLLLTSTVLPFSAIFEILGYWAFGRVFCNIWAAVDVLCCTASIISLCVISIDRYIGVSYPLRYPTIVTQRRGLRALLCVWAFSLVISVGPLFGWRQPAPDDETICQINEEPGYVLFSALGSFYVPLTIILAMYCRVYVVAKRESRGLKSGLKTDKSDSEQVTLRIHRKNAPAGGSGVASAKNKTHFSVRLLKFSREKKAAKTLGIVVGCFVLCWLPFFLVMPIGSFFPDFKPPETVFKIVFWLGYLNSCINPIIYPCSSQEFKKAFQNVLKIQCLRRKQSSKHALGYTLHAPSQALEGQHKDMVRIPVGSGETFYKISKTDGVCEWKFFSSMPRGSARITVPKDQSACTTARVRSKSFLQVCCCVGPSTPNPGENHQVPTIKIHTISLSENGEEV

[9] = target: T7, Alpha-1A adrenergic receptor (Oryctolagus cuniculus); test: (§2) Agonist activity at alpha1A adrenoreceptor in Oryctolagus cuniculus (rabbit) urethra
[10] = target: T8, Alpha-1A adrenergic receptor (Oryctolagus cuniculus, UniProt O02824); test: as §2
T8 sequence (O02824 whole entry): T7 sequence (whole entry)

[11] = target: T2, Alpha-1B adrenergic receptor; test: as §1
Canis familiaris [12] = test: Selectivity index, ratio of ED20 for change in mean arterial pressure to ED5 for effect on intraurethral pressure in iv dosed Canis lupus familiaris (dog); parameters: species or system Artery
[13] = target: T1, Alpha-1D adrenergic receptor; test: Agonist activity at alpha1D adrenoreceptor in Rattus norvegicus (rat) aorta
Canis familiaris [14] = test: Pressor activity in Canis lupus familiaris (dog) assessed as increase in mean arterial blood pressure at 100 nmol/kg, iv in presence of idazoxan; assay type: ADME, organism-based; conditions: in vivo
Canis familiaris [15] = test: Pressor activity in Canis lupus familiaris (dog) assessed as increase in mean arterial blood pressure at 100 nmol/kg, iv in presence of prazosin; assay type: ADME, organism-based; conditions: in vivo
Canis familiaris [16] = test: Pressor activity in Canis lupus familiaris (dog) assessed as increase in mean arterial blood pressure at 100 nmol/kg, iv; assay type: ADME, organism-based; conditions: in vivo
[17] = target: T5, Alpha-1B adrenergic receptor (Rattus norvegicus); test: Agonist activity at alpha1B adrenoreceptor in Rattus norvegicus (rat) spleen relative to phenylephrine

SMILES	Ki [3]	Ki [4]	Ki [5]	pEC50 [6]	further results
CCS(=O)(=O)Nc1cccc(Cc2c[nH]cn2)c1C					Kb [1]: 5.89 µM; Kb [2]: 15.1 µM
CCCS(=O)(=O)Nc1c(O)ccc2c1CCCC2C1=NCCN1 (stereo unspecified)	1.86 µM	0.776 µM	3.09 µM		
CS(=O)(=O)Nc1cccc2c1CCCCC2c1c[nH]cn1 (stereo unspecified)				inactive	
CS(=O)(=O)Nc1c(O)ccc2c1CCCC2C1=NCCN1 (stereo unspecified)					Efficacy [7]: 99%; Efficacy [8]: 88%
CCCS(=O)(=O)Nc1cccc2c1CCCC2c1c[nH]cn1 (stereo unspecified)	> 10 µM		> 10 µM	inactive	pEC50 [9]: inactive
O=S(=O)(Nc1c(O)ccc2c1CCCC2C1=NCCN1)C(F)(F)F (stereo unspecified)	> 3.16 µM	> 3.16 µM	> 3.16 µM		
O=S(=O)(Nc1cccc2c1CCCC2c1c[nH]cn1)C1CC1 (stereo unspecified)			> 10 µM	inactive	EC50 [10]: 5.62 µM
O=S(=O)(CC(F)(F)F)Nc1cccc2c1CCCC2c1c[nH]cn1 (stereo unspecified)	> 10 µM		> 10 µM	inactive	Kb [1]: 27.5 µM; Kb [2]: 42.7 µM; Efficacy [8]: 64%
CN(c1c(O)ccc2c1CCCC2C1=NCCN1)S(C)(=O)=O (stereo unspecified)	18.2 µM	5.5 µM	15.8 µM		
COC(=O)Nc1cccc2c1CCCC2c1c[nH]cn1 (stereo unspecified)				inactive	pEC50 [9]: inactive
CC(N)C(O)c1ccccc1 (stereo unspecified) [PHENYLPROPANOLAMINE]					EC50 [11]: 282 µM; EC50 [10]: 234 µM; Selectivity Index (Canis familiaris [12]): 0.4; EC50 [13]: 75.9 µM
COc1ccc(OC)c(C(O)CN)c1 (stereo unspecified) [DESGLYMIDODRINE]					EC50 [10]: 7.08 µM; Selectivity Index (Canis familiaris [12]): 1.3; EC50 [13]: 1.86 µM
Nc1cccc2c1CCCC2c1c[nH]cn1 (stereo unspecified)		0.126 µM			EC50 [11]: 0.977 µM; EC50 [10]: 0.275 µM
NC(=O)Nc1c(O)ccc2c1CCCC2C1=NCCN1 (stereo unspecified)	5.5 µM	7.08 µM	10 µM		
Cn1cncc1C1CCCc2c(NS(C)(=O)=O)cccc21 (stereo unspecified)	> 10 µM	> 10 µM	> 10 µM	inactive	pEC50 [9]: inactive
CCS(=O)(=O)Nc1cccc(Cc2c[nH]cn2)c1					Activity (Canis familiaris [14]): Toxic; Activity (Canis familiaris [15]): Non-toxic; Kb [1]: 0.661 µM; Activity (Canis familiaris [16]): Toxic; Kb [2]: 4.07 µM; Efficacy [17]: 11%
CCS(=O)(=O)Nc1cccc2c1CCCC2c1c[nH]c(C)n1 (stereo unspecified)	> 10 µM		> 10 µM	inactive	pEC50 [9]: inactive
COC(=O)Nc1c(O)ccc2c1CCCC2C1=NCCN1 (stereo unspecified)	8.51 µM	0.288 µM	10 µM		
O=S(=O)(Nc1c(O)ccc2c1CCCC2C1=NCCN1)c1ccccc1 (stereo unspecified)	> 3.16 µM	> 3.16 µM	> 3.16 µM		
CCS(=O)(=O)Nc1c(O)ccc2c1CCCC2C1=NCCN1 (stereo unspecified)	2.19 µM	0.0603 µM	4.27 µM		
CC(C)S(=O)(=O)Nc1cccc2c1CCCC2c1c[nH]cn1 (stereo unspecified)			> 10 µM		EC50 [11]: 14.1 µM; EC50 [10]: 6.76 µM; Efficacy [17]: 8%
CCS(=O)(=O)Nc1cccc2c1CCC[C@H]2c1c[nH]cn1	1.07 µM	0.0468 µM	1.32 µM		Kb [1]: 7.24 µM; EC50 [11]: 3.8 µM; EC50 [10]: 0.17 µM; Kb [2]: 13.8 µM; Selectivity Index (Canis familiaris [12]): 3.3; Efficacy [17]: 11%; Efficacy [8]: 71%
Cn1cnc(C2CCCc3c(NS(C)(=O)=O)cccc32)c1 (stereo unspecified)	3.63 µM		1.05 µM		
COc1ccc2c(c1NS(C)(=O)=O)CCCC2C1=NCCN1 (stereo unspecified)	1.55 µM	0.617 µM	3.47 µM		
CCS(=O)(=O)Nc1cccc2c1CCCC2c1c[nH]cn1 (stereo unspecified)				inactive	
